Our source for the IC50 values is patent US8575201B2 (Boehringer Ingelheim International GmbH, priority 2010, dated 2013).

pIC50: −log10 of the molar value.

Assay [1] has as its target recombinant human FLAP protein (Homo sapiens (Human), UniProt P20292). The experiment in a line: FLAP binding assay (Scintillation Proximity Assay, displacement of [125I]L-691,831). As to conditions: read-out: FLAP SPA IC50. In outline: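 Scintillation proximity displacement of an iodinated (125I) FLAP inhibitor by test compounds, using 100,000×g membrane fraction from lysed cells. Final beads 200 μg/well and protein 5 μg/well; plates shaken 2 h before reading.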
(In general: Scintillation proximity formats need no separation of bound from free tracer.)

The test system of assay [2] is synthesis of LTB4 in human whole blood. The experiment in a line: Human whole blood LTB4 production inhibition assay. It counts as cell-based. As to conditions: calcimycin stimulated, read-out: hWB LTB4 IC50. In outline: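 Steps: compound plus heparinized human whole blood, 15 min at 37° C; add calcimycin to 20 μM final; incubate another 30 min at 37° C; centrifuge at low speed and collect plasma; measure LTB4 with a homogeneous time-resolved fluorescence immunoassay.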

recombinant human FLAP protein, sequence (P20292 whole entry): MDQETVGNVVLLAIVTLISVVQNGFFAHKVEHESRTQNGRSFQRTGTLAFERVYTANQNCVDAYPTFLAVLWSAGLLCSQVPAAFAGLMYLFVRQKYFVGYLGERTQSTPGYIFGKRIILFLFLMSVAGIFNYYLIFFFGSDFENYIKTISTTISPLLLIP

On to `CC(C)(N)Cn1cc(-c2nc(C3(c4ccc(-c5cnc(N)nc5)nc4)CCC3)no2)cn1` [Example 150, 5-[5-(1-{5-[1-(2-amino-2-methyl-propyl)-1H-pyrazol-4-yl]-[1,2,4]oxadiazol-3-yl}-cyclobutyl)-pyridin-2-yl]-pyrimidin-2-ylamine], for which the pIC50 (in general, the IC50 on a negative log10 scale, so that one unit is a factor of ten) in assay [1] is 7.17; in assay [2], 6.43.

Regarding `CS(=O)(=O)N1CCN(c2ccc(-c3nc(C4(c5ccc(-c6cnc(N)nc6)nc5)CCC4)no3)cn2)CC1` [Example 50, 5-{5-[1-(5-{6-[4-(methylsulfonyl)piperazin-1-yl]pyridin-3-yl}-1,2,4-oxadiazol-3-yl)cyclobutyl]pyridin-2-yl}pyrimidin-2-amine], the pIC50 in assay [1] is 8.57; in assay [2], 6.82.

In the case of `Cc1nc(C)c(-c2nc(C3(c4ccc(-c5cnc(N)nc5)nc4)CCC3)no2)s1` [Example 94, 5-(5-{1-[5-(2,4-dimethyl-1,3-thiazol-5-yl)-1,2,4-oxadiazol-3-yl]cyclobutyl}pyridin-2-yl)pyrimidin-2-amine], the pIC50 in assay [1] is 8.09; in assay [2] it was 6.19.

For the molecule `Nc1ncc(-c2ccc(C3(c4noc(-c5cccnc5C(F)(F)F)n4)CCC3)cn2)cn1` [Example 109, 5-[5-(1-{5-[2-(trifluoromethyl)pyridin-3-yl]-1,2,4-oxadiazol-3-yl}cyclobutyl)pyridin-2-yl]pyrimidin-2-amine], the pIC50 in assay [1] was 7.85; in assay [2], 5.82.

For `Cc1cc(-c2nc(C3(c4ccc(-c5cnc(N)nc5)nc4)CCC3)no2)ccn1` [Example 101, 5-(5-{1-[5-(2-methylpyridin-4-yl)-1,2,4-oxadiazol-3-yl]cyclobutyl}pyridin-2-yl)pyrimidin-2-amine], the results for the pIC50 in assay [1] and in assay [2] were 7.62 and 6.09, respectively.

With `CNc1cnc(-c2ccc(C3(c4noc(-c5cnn(CC(C)(C)O)c5)n4)CCC3)cn2)cn1` [Example 177, 2-Methyl-1-[4-(3-{1-[6-(5-methylamino-pyrazin-2-yl)-pyridin-3-yl]-cyclobutyl}-[1,2,4]oxadiazol-5-yl)-pyrazol-1-yl]-propan-2-ol], the pIC50 in assay [1] was 7.49; in assay [2], 6.80.

`Nc1ncc(-c2ccc(C3(c4noc(-c5ccc(O)cc5)n4)CCC3)cn2)cn1` [Example 32, 4-(3-{1-[6-(2-aminopyrimidin-5-yl)pyridin-3-yl]cyclobutyl}-1,2,4-oxadiazol-5-yl)phenol]: the pIC50 in assay [1] is 8.54; in assay [2] it was 6.85.

For “5-(6-{1-[5-(3-methyl- 1H-pyrazol-4-yl)-1,2,4- oxadiazol-3- yl]cyclobutyl}pyridin-3- yl)pyrimidin-2-amine [Example 135]”, the figures for the pIC50 in assay [1] and in assay [2] were 7.57 and 6.40, respectively.

On to `Nc1ncc(-c2ccc(C3(c4noc(-c5cnccc5N)n4)CCC3)cn2)cn1` [Example 106, 5-(5-{1-[5-(4-aminopyridin-3-yl)-1,2,4-oxadiazol-3-yl]cyclobutyl}pyridin-2-yl)pyrimidin-2-amine], for which the pIC50 in assay [1] was 7.51; in assay [2], 6.08.

On to `Nc1ncc(-c2ccc(C3(c4noc(-c5cnn(C(F)F)c5)n4)CCC3)cn2)cn1` [Example 66, 5-[5-(1-{5-[1-(difluoromethyl)-1H-pyrazol-4-yl]-1,2,4-oxadiazol-3-yl}cyclobutyl)pyridin-2-yl]pyrimidin-2-amine], for which the pIC50 in assay [1] is 8.13; in assay [2], 6.70.

For the molecule `Nc1ncc(-c2ccc(C3(c4noc(-c5cnco5)n4)CCC3)cn2)cn1` [Example 98, 5-(5-{1-[5-(1,3-oxazol-5-yl)-1,2,4-oxadiazol-3-yl]cyclobutyl}pyridin-2-yl)pyrimidin-2-amine], the pIC50 in assay [1] was 6.96; in assay [2], under 5.30.

Turning to `Nc1ncc(-c2ccc(C3(c4noc(-c5ccc(N6CCOCC6)nc5)n4)CCC3)cn2)cn1` [Example 89, 5-[5-(1-{5-[6-(morpholin-4-yl)pyridin-3-yl]-1,2,4-oxadiazol-3-yl}cyclobutyl)pyridin-2-yl]pyrimidin-2-amine], the pIC50 in assay [1] was 8.57; in assay [2] it was 6.74.
